{"source": "paper PMC6264741", "about": "“Chemical Constituents and Biological Studies of the Leaves of Grevillea robusta” (Molecules, 2011)", "key": {"[1]": {"system": "MCF-7 human breast tumor cell line", "test": "Cytotoxicity assay, MCF-7", "assay_type": "cell-based", "settings": "MCF7, mean ± SD (n = 3–8)", "description": "(§1) Compounds 1−8, 11−18, 20, and 21 were subjected to cytotoxic evaluation. The clinically applied anticancer agent, actinomycin D, was used as a positive control for the cytotoxicity assays.\n(§2) The cytotoxicity assay was carried out according to procedures that have been previously described in the literature."}, "[2]": {"system": "NCI-H460 human lung tumor cell line", "test": "Cytotoxicity assay, NCI-H460", "assay_type": "cell-based", "settings": "mean ± SD (n = 3–8)", "description": "as §1, §2"}, "[3]": {"system": "SF-268 human central nervous system tumor cell line", "test": "Cytotoxicity assay, SF-268", "assay_type": "cell-based", "settings": "mean ± SD (n = 3–8)", "description": "as §1, §2"}, "[4]": {"system": "MCF-7 human breast tumor cell line", "set-up": "method as in PMID 20704331", "settings": "positive control; cited from earlier work"}, "[5]": {"system": "NCI-H460 human lung tumor cell line", "set-up": "method as in PMID 20704331", "settings": "positive control; cited from earlier work"}, "[6]": {"system": "SF-268 human central nervous system tumor cell line", "set-up": "method as in PMID 20704331", "settings": "positive control; cited from earlier work"}, "[7]": {"test": "DPPH free radical scavenging activity assay", "set-up": "DPPH inhibition activity (Inhibition %): dose or concentration left out as unconfirmed", "settings": "mean ± S.E.M (n = 3); for IC50: 0.1 mM DPPH in ethanol, 30 min, 517 nm, read-out: DPPH inhibition activity IC50", "description": "The free radical scavenging activity of compounds 1, 4, 5, 7, 8, 11−18, and 20 was measured with DPPH^• using the method of Chiu et al.. Briefly, 0.1 mM solution of DPPH^• in ethanol was prepared, and sample (20 μL) was added. The sample was thoroughly mixed and kept in the dark for 30 min. The absorbance was measured at 517 nm on a Quant universal microplate spectrophotometer. α-Tocopherol (Sigma Chemical Co.) was used as a standard agent. A lower absorbance of the reaction mixture indicated a higher free radical scavenging activity. The sample concentration that was used to provide the IC50 data was calculated from a graph plotting inhibition percentage against sample concentration. Tests were performed in triplicate."}}, "note": "Where two headings read alike, the source gives them in different places. Numbered stars: 1 amine (or outer) side, 2 acyl side, 3 side chain; on linkers, the order of the positions; unused ones are H or OH. Bridge positions count the residues as written; N and C are the ends. Square brackets hold non-standard residues; d marks the D form. Peptide text beside a SMILES is read from it. I, II: the chains in the order shown. Actinocin(9to1) = Cc1c2oc3c(C)ccc(C(=O)[*:1])c3nc-2c(C(=O)[*:2])c(N)c1=O; NMeV = CN[C@H](C(=O)O)C(C)C; Sar = CNCC(=O)O", "data": [{"smiles": "CCCCCCCCCCCCCCC[C@H]1CC(=O)C[C@@H](O)C1", "note": "(relative stereo) [Compound 2, cis-3-hydroxy-5-pentadecylcyclohexanone]", "values": [{"measurement": "IC50", "setting": "[1]", "value": "26.7 ± 1.9", "unit": "µM"}, {"measurement": "IC50", "setting": "[2]", "value": "42.6 ± 3.6", "unit": "µM"}, {"measurement": "IC50", "setting": "[3]", "value": "20.5 ± 0.6", "unit": "µM"}, {"measurement": "melting point", "value": "62 to 64", "unit": "°C"}]}, {"smiles": "Cc1c2oc3c(C)ccc(C(=O)N[C@@H]4C(=O)N[C@H](C(C)C)C(=O)N5CCC[C@H]5C(=O)N(C)CC(=O)N(C)[C@@H](C(C)C)C(=O)O[C@@H]4C)c3nc-2c(C(=O)N[C@@H]2C(=O)N[C@H](C(C)C)C(=O)N3CCC[C@H]3C(=O)N(C)CC(=O)N(C)[C@@H](C(C)C)C(=O)O[C@@H]2C)c(N)c1=O", "note": "[Actinomycin D, actinomycin D] (I: T[dV]P[Sar][NMeV] / II: T[dV]P[Sar][NMeV]; ester I:1-I:C, II:1-II:C; linker I:N-II:N via Actinocin(9to1))", "values": [{"measurement": "IC50", "setting": "[4]", "value": 103, "unit": "nM"}, {"measurement": "IC50", "setting": "[5]", "value": 8, "unit": "nM"}, {"measurement": "IC50", "setting": "[6]", "value": 16, "unit": "nM"}]}, {"smiles": "COC(=O)/C=C/C1(O)C=CC(=O)C=C1", "note": "[Compound 1, 4-hydroxy-4-(3-methoxycarbonyl)ethenylcyclohexadien-1-one]", "values": [{"measurement": "IC50", "setting": "[1]", "value": "15 ± 3", "unit": "µM"}, {"measurement": "IC50", "setting": "[2]", "value": "10.8 ± 2.3", "unit": "µM"}, {"measurement": "IC50", "setting": "[3]", "value": "5.9 ± 0.1", "unit": "µM"}, {"measurement": "IC50", "setting": "[7]", "value": "23 ± 0.53", "unit": "µM"}]}, {"smiles": "CCOc1ccc(O)c(C=CC(=O)OC)c1", "note": "[Compound 3, methyl 5-ethoxy-2-hydroxycinnamate]", "values": [{"measurement": "IC50", "setting": "[1]", "value": "> 50", "unit": "µM"}, {"measurement": "IC50", "setting": "[2]", "value": "> 50", "unit": "µM"}, {"measurement": "IC50", "setting": "[3]", "value": "> 50", "unit": "µM"}, {"measurement": "melting point", "value": "98 to 100", "unit": "°C"}]}, {"smiles": "COC(=O)C=Cc1cc(O)ccc1O", "note": "[Compound 4, methyl 2,5-dihydroxycinnamate]", "values": [{"measurement": "IC50", "setting": "[1]", "value": "> 50", "unit": "µM"}, {"measurement": "IC50", "setting": "[2]", "value": "> 50", "unit": "µM"}, {"measurement": "IC50", "setting": "[3]", "value": "> 50", "unit": "µM"}, {"measurement": "IC50", "setting": "[7]", "value": "0.53 ± 0.09", "unit": "µM"}]}, {"smiles": "Oc1cc2cc(c1)Oc1c(O)cc(cc1O)[C@H](O)CCCCCCCCCCCCC2", "note": "[Compound 5, gravicycle]", "values": [{"measurement": "IC50", "setting": "[7]", "value": "25.7 ± 0.32", "unit": "µM"}]}, {"smiles": "Oc1cc2cc(c1)Oc1c(O)cc(cc1O)CCCCCCCCCCCCCC2", "note": "[Compound 7, robustol]", "values": [{"measurement": "IC50", "setting": "[7]", "value": "28.8 ± 0.42", "unit": "µM"}]}, {"smiles": "Oc1cc2cc(c1)Oc1c(O)cc(cc1O)CCCCCCCC=CCCCCC2", "note": "[Compound 8, dehydrobustol-A]", "values": [{"measurement": "IC50", "setting": "[7]", "value": "11.8 ± 0.88", "unit": "µM"}]}, {"smiles": "COc1cc(O)cc2c1-c1c(O)cc(cc1O)CCCCCCCCCCCCCC2", "note": "[Compound 11, methylgraviphane]", "values": [{"measurement": "DPPH inhibition activity (Inhibition %)", "setting": "[7]", "value": "(28.21 ± 0.23) %"}]}, {"smiles": "COc1cc(O)cc2c1-c1c(O)cc(cc1O)CCCCCCCC=CCCCCC2", "note": "[Compound 12, methyldehydrograviphane]", "values": [{"measurement": "IC50", "setting": "[7]", "value": "15.7 ± 0.31", "unit": "µM"}]}, {"smiles": "Oc1cc(O)c2c(c1)CCCCCCCCCCCCCCc1cc(O)c-2c(O)c1", "note": "[Compound 13, graviphane]", "values": [{"measurement": "IC50", "setting": "[7]", "value": "3.96 ± 0.55", "unit": "µM"}]}, {"smiles": "Oc1cc(O)c2c(c1)CCCCC/C=C/CCCCCCCc1cc(O)c-2c(O)c1", "note": "[Compound 14, dehydrograviphane]", "values": [{"measurement": "IC50", "setting": "[7]", "value": "2.05 ± 0.22", "unit": "µM"}]}, {"smiles": "COc1cc(O)cc(CCCCCCCCCCCCCCc2cc(O)cc(O)c2)c1", "note": "[Compound 15, bisgravillol]", "values": [{"measurement": "IC50", "setting": "[7]", "value": "36.7 ± 0.43", "unit": "µM"}]}, {"smiles": "COc1cc(O)cc(CCCCCCC/C=C/CCCCCc2cc(O)cc(O)c2)c1", "note": "[Compound 16, dehydrobisgravillol]", "values": [{"measurement": "IC50", "setting": "[7]", "value": "28.9 ± 0.67", "unit": "µM"}]}, {"smiles": "Oc1cc(O)cc(CCCCCCCCCCCCCCc2cc(O)cc(O)c2)c1", "note": "[Compound 17, bis-norstriatol]", "values": [{"measurement": "IC50", "setting": "[7]", "value": "31.3 ± 0.34", "unit": "µM"}]}, {"smiles": "Oc1cc(O)cc(CCCCCC=CCCCCCCCc2cc(O)cc(O)c2)c1", "note": "[Compound 18, 5-[14'-(3'',5''-dihydroxyphenyl)-cis-tetradec-6'-en-1'-yl]benzene-1,3-diol]", "values": [{"measurement": "IC50", "setting": "[7]", "value": "35.2 ± 0.48", "unit": "µM"}]}, {"smiles": "CCCCCCCCCCCCCCCc1cc(O)cc(O)c1", "note": "[Compound 20, cis-5-n-pentadecylresorcinol]", "values": [{"measurement": "DPPH inhibition activity (Inhibition %)", "setting": "[7]", "value": "(21.32 ± 0.21) %"}]}, {"smiles": "Cc1c(C)c2c(c(C)c1O)CC[C@@](C)(CCC[C@H](C)CCC[C@H](C)CCCC(C)C)O2", "note": "[α-tocopherol, reference compound]", "values": [{"measurement": "IC50", "setting": "[7]", "value": "3.1 ± 0.05", "unit": "µM"}]}]}
